Paper PMC9695356, “Development and Validation of an LC-MS/MS Method for Simultaneous Determination of Short Peptide-Based Drugs in Human Blood Plasma” (Molecules, 2022)

Experiments:
[1] = clinical; details: male, human, in vivo, sc
[2] = LC-MS/MS quantitation of GnRH analogs in blood plasma of prostate cancer patients (therapeutic monitoring); details: patients on goserelin therapy; conclusion from the obtained data
[3] = native hormone; cited from earlier work
Description: Gonadotropin-releasing hormone (GnRH) is a decapeptide released by hypothalamic neurons, which stimulates GnRH-mediated pituitary secretion of both luteinizing hormone (LH) and follicle-stimulating hormone (FSH). […] Goserelin, buserelin, and triptorelin are GnRH agonists, a relatively new class of drugs. The long-term administration of these agonists results in a significant decrease in estrogen and testosterone blood levels. ...

Molecule | level at 8 day of a 28-day dosing cycle ([1]; 3.6 mg) [ng/mL] | level at 16 day of a 28-day dosing cycle ([1]; 3.6 mg) [ng/mL] | level at 10 day of an 84-day dosing cycle ([1]; 10.8 mg) [ng/mL] | level at 29 day of an 84-day dosing cycle ([1]; 10.8 mg) [ng/mL] | level at 59 day of an 84-day dosing cycle ([1]; 10.8 mg) [ng/mL] | Time at which plasma concentration starts to increase [2] | Half-life [3]
CC(C)C[C@H](NC(=O)[C@@H](COC(C)(C)C)NC(=O)[C@H](Cc1ccc(O)cc1)NC(=O)[C@H](CO)NC(=O)[C@H](Cc1c[nH]c2ccccc12)NC(=O)[C@H](Cc1cnc[nH]1)NC(=O)[C@@H]1CCC(=O)N1)C(=O)N[C@@H](CCCNC(=N)N)C(=O)N1CCC[C@H]1C(=O)NNC(N)=O [Goserelin, Goserelin acetate] | 0.95 | 16.2 | 7.81 | 13.6 | 0.55 | second week | 
Gonadotropin-releasing hormone [GnRH] |  |  |  |  |  |  | several minutes
